How the values were obtained:
[1] = tested on: K 562, Jurkat, Daudi, HeLa, CFPAC cells; assay: Determination of the cell toxicity of lipid/DNA complexes (CYTOLITE chemiluminescent test, toxicity index); type: cell-based; conditions: 48 hours after transfection; non transfected cells as controls
Method: The relative cytotoxicity of the different cationic phosphonolipid/DNA complexes is determined as a representation of the number of living cells after the transfection experiment, measured by using a chemiluminescent test, the CYTOLITE® test (marketed by PACKARD Company, France) following the manufacturer's recommendations.
The cell transfection is conducted following the procedure described in the above Section A.3.
On the day of the transfection, cells are seeded in 24-well plate wells at a level of: • 500,000 cells per well for the non adherent cell lineages (K 562. Jurkat, Daudi); and • 150,000 cells per well for the adherent cell lineages (HeLa, CFPAC cells in primary culture).
The cells are treated for the transfection as described hereinabove and incubated for another period of 48 hours.
After incubation, the cytotoxicity test is conducted following the manufacturer's recommendations.
The amount of relative light units (RLU for <<Relative light units>>) being formed is proportional to the number of living cells.
The non transfected cells are used as controls.
The final results are expressed following a toxicity index. The toxicity index represents the ratio between the number of living cells in the control cultures (without cationic lipids/DNA complex) and the number of living cells in the culture wells containing the transfected cells.

mice's lungs = assay: In vivo transfection of luciferase plasmid DNA complexed with cationic lipid (luciferase in lungs, RLU); parameters: species or system mice of the Swiss lineage; conditions: mouse, 50 μg plasmid DNA as lipid/DNA complex; alone or with DOPE or cholesterol; FIG. 6
Method: Cationic lipid/DNA complexes are prepared according to a charge (+/−) ratio of 4 and are administered to six week old mice of the Swiss lineage through one single injection into the caudal vein. Each animal receives a volume of 200 μl of a solution of the tested lipid/DNA complex, corresponding to 50 μg plasmid DNA coding the luciferase protein.
The animals are sacrificed 24 hours after the injection and each organ of interest id deep frozen in liquid nitrogen and then stored at a temperature of −70° C.
The deep frozen tissues are ground with steel balls in a 2 ml round bottom tube of the Epperdorf type using a device of the Mill MM300 mixer type (marketed by QIAGEN Company; reference: 0030120-094).
The extraction of the proteins from each tissue is performed by incubating the ground tissues in a PLB lysis buffer (Promega) followed by a centrifugation at 10,000 g, 10 min at 4° C. […]
Parallelly, the total protein concentration is measured using the <<Coomassie Plus Reagent Assay Kit>> (marketed by Pierce Company). […]
A comparative study of different cationic lipids is conducted by varying the linking part (Group R^3) between the hydrophobic domain and the hydrophilic domain, in mouse. Each lipid is evaluated separately or in admixture with the DOPE compound or cholesterol, used as co-lipids, as described in the <<Material and Methods>> section.

CCCCCCCCCCCCCCOP(=O)(OCCCCCCCCCCCCCC)N(C)CCC[N+](C)(C)C.[I-] [KLN 5, 3-[[bis(tetradecyloxy)phosphoryl](methyl)amino]-N.N.N-trimethyl-propanaminium iodide]
cytotoxicity (toxicity index: living cells in control cultures / living cells in transfected cultures) [1]: does not show any toxicity

CCCCCCCC/C=C\CCCCCCCCOP(=O)(NCCC[P+](C)(C)C)OCCCCCCCC/C=C\CCCCCCCC.[I-] [KLN20, dioleyl 3-(trimethylphosphonio)propylamidophosphate iodide]
in vivo transfection efficiency (luciferase amount found in lungs) (mice's lungs): most efficient

From US7667070B2, “Lipophilic compounds and uses thereof” (Centre National de la Recherche Scientifique (CNRS), priority 2002, dated 2010)
